Converted amounts (≈) assume the structure as drawn.
Conditions: buffer; pH 7.4; 200.0 µM

| Compound | solubility kinetic [µg/mL] |
| --- | --- |
| c1ccc2c(c1)CC(CN1CCNCC1)O2 (centres undefined) | > 32.7 |
| O=C1NC(c2ccccc2O)Nc2ccccc21 (centres undefined) | 34.8 (≈ 145 µM) |
| O=C(COC(=O)c1ccc(Cl)c([N+](=O)[O-])c1)NC1CCCC1 | 7.6 (≈ 23.3 µM) |
| COc1ccc(NC(=O)CCCc2ccc(OC)c(C)c2)cc1 | 2.1 (≈ 6.7 µM) |
| S=c1nc(NCCc2ccccc2Cl)c2ccccc2[nH]1 | 0.2 (≈ 0.633 µM) |
| COc1ccc(CCNC(=O)C(=O)NCC2CCNCC2)cc1OC | > 52.4 |
| COc1ccc(N2CC(C(=O)N3CCN(C)CC3)CC2=O)cc1 (centres undefined) | 43.8 (≈ 138 µM) |
| [O-][n+]1c2ccccc2[n+]([O-])c2cc(O)ccc21 | > 34.2 |
| CC(NC(=O)CNC(=O)c1cccc(Cl)c1)c1ccccc1 (centres undefined) | 43.7 (≈ 138 µM) |
| CC(C)(C)c1ccc(/C=C(\C#N)C(=O)Nc2ccccn2)cc1 | 0.6 (≈ 1.96 µM) |
| CCN(Cc1ccccc1)C(=O)CN1C(=O)c2ccccc2C1=O | > 48.4 |
| O=C(COc1ccccc1)Nc1ccncc1Cl | 32.3 (≈ 123 µM) |
| Cc1cc(SCc2cccc(C(F)(F)F)c2)nc(=O)[nH]1 | 26.9 (≈ 89.6 µM) |
| COCCNC(=O)/C(C#N)=C/c1ccc(C(=O)O)cc1 | > 41.1 |
| N#Cc1ccccc1Oc1ccccc1C=O | 31.6 (≈ 142 µM) |
| O=C(NCc1ccco1)c1cc(Cl)nc(Cl)c1 | 40.3 (≈ 149 µM) |
| CCOc1ccc(N(CC(=O)N2CCCCCC2)S(=O)(=O)c2ccc(C)cc2)cc1 | 23.6 (≈ 54.8 µM) |
| CC(=O)c1c(C)n(-c2ccc(Cl)cc2)c2ccc(O)cc12 | < 0.6 |
| COc1ccc(CNCCC2(C(C)C)CCOC(C)(C)C2)cc1 (centres undefined) | > 47.9 |
| COC(=O)[C@H](CC(C)C)NC(=O)N1CCC(C)CC1 | > 40.6 |
| CCCNC(=O)C/C(C)=N/NC(=O)C(=O)Nc1ccccn1 | > 45.8 |
| Cc1cccc(C)c1NC(=O)c1cnccn1 | 24.8 (≈ 109 µM) |
| COC(=O)C1CCN(C(=O)CN2C(=O)NC(CC(C)C)C2=O)CC1 (centres undefined) | > 50.9 |
| Cc1ccc(NC(=O)C2CCN(C(=O)c3ccco3)CC2)cc1C | 45.1 (≈ 138 µM) |

| Compound | solubility kinetic [µg/mL] |
| --- | --- |
| O=[N+]([O-])c1ccc(Sc2ccccn2)nc1 | 34.9 (≈ 150 µM) |
| Nc1ncc2[nH]cnc2n1 | > 20.3 |
| COC(=O)c1sccc1NC(=O)c1ccccc1Br | 2.3 (≈ 6.76 µM) |
| O=C(CCCc1ccccc1)Nc1nccs1 | 28.5 (≈ 116 µM) |
| CN(C)C(=S)SCC(=O)NC(=O)NC(C)(C)C | 39.4 (≈ 142 µM) |
| O=C(Nc1cc(Cl)ccc1N1CCOCC1)c1ccc(=O)[nH]c1 | 38.1 (≈ 114 µM) |
| CC(=O)N1CCN(CC(O)Cn2c3ccccc3c3ccccc32)CC1 (centres undefined) | > 52.7 |
| O=C(COc1ccc(F)cc1)Nc1ccc2c(c1)OCCO2 | 7.9 (≈ 26 µM) |
| O=[N+]([O-])c1ccc(OCCCOc2cccc3cccnc23)cc1 | 0.6 (≈ 1.85 µM) |
| Cc1ccc(NC(=O)C(c2ccccc2)c2ccccc2)c(O)c1 | 2.1 (≈ 6.62 µM) |
| COc1ccc(NC(=O)C2CCC2)cc1S(=O)(=O)Nc1cc(C)ccc1Br | 1.1 (≈ 2.43 µM) |
| Cc1ccnc(SC2CC(=O)N(c3ccc(Br)cc3)C2=O)n1 (centres undefined) | 44.1 (≈ 117 µM) |
| COc1ccc(C(=O)N(Cc2ccccc2)c2cccc(C)c2)cc1 | 15.8 (≈ 47.7 µM) |
| O=C(NCC(=O)N1CCN(Cc2ccc3c(c2)OCO3)CC1)c1ccccc1F | 1.4 (≈ 3.51 µM) |
| O=C(Nc1cccc([N+](=O)[O-])c1)Nc1ccc2c(c1)OCCO2 | 0.4 (≈ 1.27 µM) |
| O=C(NCC(c1ccco1)N1CCc2ccccc21)c1cccc(F)c1 (centres undefined) | 16.3 (≈ 46.5 µM) |
| COc1ccc(NC(=S)N(C)CC2COc3ccccc3O2)cc1 (centres undefined) | 2.6 (≈ 7.55 µM) |
| COc1cc2[nH]c(=S)n(Cc3cccs3)c(=O)c2cc1OC | < 0.4 |
| O=c1cc(-c2ccccc2)c2cc3c(cc2[nH]1)OCCO3 | 1.4 (≈ 5.01 µM) |
| CC1(C(=O)NCc2ccc(F)cc2)Oc2ccccc2NC1=O (centres undefined) | > 47.1 |
| COc1ccc(CCNC(=O)COC(=O)C2CC2)cc1 | 25.4 (≈ 91.6 µM) |
| COCc1cc(C)nc(NC2CC(C)(C)NC(C)(C)C2)c1C#N | > 47.5 |
| O=C(/C=C/c1ccccc1)Nc1ccc(NC(=O)c2cccs2)cc1 | < 0.4 |
| CC(=O)c1cccc(CN2CCN(C3CCCC3)C(CCO)C2)c1 (centres undefined) | > 49.6 |

| Compound | solubility kinetic [µg/mL] |
| --- | --- |
| CNc1ccc(Br)cc1C(O)c1ccccc1 (centres undefined) | 34.7 (≈ 119 µM) |
| O=C(NCC(=O)N1CCN(C/C=C/c2ccccc2)CC1)c1ccc(Br)cc1 | 15.4 (≈ 34.8 µM) |
| O=c1cc(C(O)C[N+](=O)[O-])occ1OCc1ccccc1 (centres undefined) | 41.6 (≈ 143 µM) |
| Nc1ccccc1C(=O)NCC1(c2ccccc2)CCCC1 | > 44.2 |
| CC(C)(C)c1csc(NC(=O)c2cccnc2)n1 | 10 (≈ 38.3 µM) |
| CC(=O)N/C(N)=N/c1nc2cc(C)ccc2o1 | 3.3 (≈ 14.2 µM) |
| CC(=O)c1cccc(NC(=O)Nc2ccc3c(c2)CCC3)c1 | 0.3 (≈ 1.02 µM) |
| O=C(/C=C/c1ccccc1)N1CCOCC1 | > 32.6 |
| O=C(O)c1ccc2c(=O)[nH]c(CCl)nc2c1 | > 35.8 |
| CCN(C(=O)COC(=O)c1ccc([N+](=O)[O-])o1)C1CCCCC1 | > 48.6 |
| Cc1ccc(S(=O)(=O)N2CCOCC2)cc1NC(=O)CN1C(=O)NC2(CCCC2)C1=O | > 67.6 |
| Cc1ccc(S(=O)(=O)N2CCOCC2)cc1C(=O)NCCc1ccc(Cl)cc1 | 26 (≈ 61.5 µM) |
| O=C(O)C1C2CCC(C2)C1C(=O)Nc1cccc([N+](=O)[O-])c1 (centres undefined) | 13.9 (≈ 45.7 µM) |
| Cc1ccccc1OCC(=O)O/N=C(\N)c1ccncc1 | 28.7 (≈ 101 µM) |
| O=C(Oc1ccccc1)N1CCN(c2ccccc2F)CC1 | 39.5 (≈ 132 µM) |
| CC(NC(=O)COC(=O)c1ccccc1O)C1CC2CCC1C2 (centres undefined) | 14.1 (≈ 44.4 µM) |
| CC1CCN(C(=O)CN(Cc2ccc(F)cc2)S(C)(=O)=O)CC1 | > 51.4 |
| Cc1nc(C2COc3ccccc3O2)sc1C(=O)O (centres undefined) | 35 (≈ 126 µM) |
| O=S(=O)(c1ccc(Cl)cc1)N1CCN(CCc2ccncc2)CC1 | 18.3 (≈ 50 µM) |
| CN(C)c1nc(-c2cccnc2)nc(-c2ccccc2)c1C#N | 0.6 (≈ 1.99 µM) |
| CC(C)N1CCN(Cc2nc3c(s2)CCCC3)CC1CCO (centres undefined) | 41.4 (≈ 128 µM) |
| N#CCC(=O)N1CCN(Cc2ccc3c(c2)OCO3)CC1 | 1.6 (≈ 5.57 µM) |
| CC(=O)Nc1cccc(NC(=O)CCNC(=O)c2ccccc2)c1 | > 48.8 |
| CN1CCN(c2nc3ccccc3nc2NS(=O)(=O)c2ccc(Br)cc2)CC1 | > 69.4 |

| Compound | solubility kinetic [µg/mL] |
| --- | --- |
| O=C(NCc1ccccn1)C(=O)Nc1ccccc1 | > 38.3 |
| CC(=O)N1CCN(C(=O)CCC(=O)O)CC1 | 30.9 (≈ 135 µM) |
| OCCNC(=S)Nc1ccc2c(c1)OCCO2 | 37 (≈ 145 µM) |
| CC1(C)CC(=O)C(C(O)c2ccc([N+](=O)[O-])cc2)C(C)(C)N1 (centres undefined) | 39.9 (≈ 130 µM) |
| CC(=O)N1CCN(C(=O)c2cc3ccccc3o2)CC1 | > 40.8 |
| CCc1ccc2nc(N3CCN(C(=O)C(C)(C)C)CC3)sc2c1 | 2 (≈ 6.03 µM) |
| Cc1ncc([N+](=O)[O-])n1CC(=O)Nc1ccc(F)c(F)c1 | 6.4 (≈ 21.6 µM) |
| CC(C)NC(=O)c1c(O)c2cccc3c2n(c1=O)CCC3 | < 0.3 |
| O=C(CSc1cccc[n+]1[O-])C12CC3CC(CC(C3)C1)C2 | > 45.5 |
| N#CC(c1ccccc1)N1CCOCC1 (centres undefined) | 20.7 (≈ 102 µM) |
| Cc1ccccc1C(=O)O/N=C(\N)Cc1cccs1 | > 41.2 |
| Cc1csc(=O)n1CC(=O)Nc1ccc(Cl)cc1F | 9 (≈ 29.9 µM) |
| Cc1ccc(NC(=O)C2CCN(C(=O)c3cccs3)CC2)cc1 | > 49.3 |
| Cc1ccc(NC2=C(Cl)C(=O)OC2OC(C)C)cc1 (centres undefined) | 34.8 (≈ 124 µM) |
| Cc1ccc(S(=O)(=O)N2CCOCC2)cc1NC(=O)COc1ccccc1Cc1ccccc1 | 4.4 (≈ 9.16 µM) |
| CNC(=O)CSc1nnc(-c2cnccn2)n1C | > 39.6 |
| Nc1cccc(-c2cnc3ccccc3n2)c1 | > 33.2 |
| CC1(c2cccc(Br)c2)NC(=O)N(CC(=O)c2ccc3c(c2)OCCO3)C1=O (centres undefined) | 12.5 (≈ 28.1 µM) |
| COc1cccc(CNC(=O)c2ccc(C3SCCS3)cc2)c1 | 10.5 (≈ 30.4 µM) |
| Cc1cc(NC(=O)c2ccc([N+](=O)[O-])cc2Cl)no1 | 16.3 (≈ 57.9 µM) |
| COc1ccccc1NS(=O)(=O)c1cccc(NS(=O)(=O)c2ccc(Cl)c(C(=O)O)c2)c1 | > 74.5 |
| CC1CN(C(=O)COC(=O)c2cccc(S(=O)(=O)N3CCc4ccccc43)c2)CC(C)O1 (centres undefined) | 15.3 (≈ 33.4 µM) |
| NS(=O)(=O)c1ccc(NC(=O)COC(=O)Cn2cnc3ccccc3c2=O)cc1 | 18 (≈ 43.2 µM) |
| Cc1ccc(Cn2c(CCCO)nc3ccccc32)cc1 | 34.5 (≈ 123 µM) |

| Compound | solubility kinetic [µg/mL] |
| --- | --- |
| CC1=CC=CC2=NC(=O)CC(C)(C(=O)O)N12 (centres undefined) | > 33 |
| CCN(CC(=O)Nc1ccccc1OC)Cc1csc(CC(=O)Nc2ccc(C)cc2)n1 | 19 (≈ 42 µM) |
| Cl.OCCNCCNCc1ccc(-c2ccccc2)cc1 | > 51.5 |
| CN(CC(=O)Nc1cccnc1Cl)S(=O)(=O)c1ccc(Cl)cc1 | 24.9 (≈ 66.5 µM) |
| Cc1cc(C)n(-c2cccc(C(=O)O)c2)n1 | > 32.4 |
| CCc1ccccc1N1CC(C(=O)N2Cc3ccccc3CC2C(N)=O)CC1=O (centres undefined) | > 58.7 |
| Cn1c(=O)n(C)c2cc(S(=O)(=O)N3CCCCC3)ccc21 | > 46.4 |
| COc1ccccc1CNC(=O)CN1C(=O)NC2(CCCCCC2)C1=O | > 53.9 |
| O=C(NC1CC1)C(Cl)c1ccccc1 (centres undefined) | > 31.5 |
| Cc1cc(C)nc(SCC(=O)Nc2nccs2)n1 | > 42.1 |
| COc1ccc(-c2noc(CN(C)C3CCOCC3)n2)cc1 | > 45.5 |
| Cc1ccc(N=C2NC(=O)/C(=C/c3cccnc3)S2)cc1C | < 0.2 |
| NC(=O)[C@@H]1CCCN1Cc1nc(Cc2ccccc2F)no1 | > 45.6 |
| Cc1onc(-c2ccccc2Cl)c1C(=O)N1CCCCC1C (centres undefined) | 45.8 (≈ 144 µM) |
| CCn1c(=O)cc(N2CCN(C(=O)c3ccco3)CC2)[nH]c1=O | > 47.7 |
| O=C(NCC1CC1)Nc1cccc(Cl)c1 | > 33.7 |
| S=C1Nc2ccccc2Sc2ccccc21 | 1 (≈ 4.11 µM) |
| O=C(CCCN1C(=O)c2cccnc2C1=O)Nc1ccccc1F | 46.4 (≈ 142 µM) |
| CCN(c1ccccc1)c1cc2ccccc2c(=O)[nH]1 | 23.9 (≈ 90.4 µM) |
| Cc1cccc(C(=O)NCC(c2ccco2)N(C)C)c1 (centres undefined) | 36.9 (≈ 135 µM) |
| CC(=O)Nc1ccc(NS(=O)(=O)c2ccc3c(c2)oc(=O)n3C)cc1 | > 54.2 |
| Cc1cc(C)c(C)c(S(=O)(=O)NCCN2CCOCC2)c1C | 48.8 (≈ 149 µM) |
| COc1ccc(C)cc1NC(=O)CCCN1C(=O)NC(C)(C)C1=O | > 50 |

— PubChem BioAssay AID1996
